From the supplement of paper PMC10307832

Key:
Experiment in all cases: relative viability (nuclei count vs DMSO), 5 days (fraction); higher = more cells survive
Selisistat + Bortezomib = compound: C1CC(C2=C(C1)C3=C(N2)C=CC(=C3)Cl)C(=O)N [Selisistat] + CC(C)C[C@H](NC(=O)[C@H](Cc1ccccc1)NC(=O)c1cnccn1)B(O)O [Bortezomib] (partner 0.002 µM)
Method in brief: (§1)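 Relative viability divides the nuclei count in treated wells by that in vehicle wells. Lung cancer cell lines were seeded in 1536-well plates, dosed by pin tool the next day, and fixed and stained after 5 days in one step with final 0.05% Triton X-100, 1% formaldehyde and 1 ug/ml Hoechst. Dosing was a single drug or a fixed anchor-drug dose plus five library-drug doses (not always all listed) in √10 steps, and values are medians of duplicate plates imaged at 4×.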

Selisistat + Olaparib = compound: C1CC(C2=C(C1)C3=C(N2)C=CC(=C3)Cl)C(=O)N [Selisistat] + O=C(c1cc(Cc2n[nH]c(=O)c3ccccc23)ccc1F)N1CCN(C(=O)C2CC2)CC1 [Olaparib] (partner 8 µM)
Method in brief: as §1

Selisistat + Pictilisib = compound: C1CC(C2=C(C1)C3=C(N2)C=CC(=C3)Cl)C(=O)N [Selisistat] + CS(=O)(=O)N1CCN(Cc2cc3nc(-c4cccc5[nH]ncc45)nc(N4CCOCC4)c3s2)CC1 [Pictilisib] (partner 1 µM)
Method in brief: as §1

Serdemetan + Dasatinib = compound: c1ccc2c(CCNc3ccc(Nc4ccncc4)cc3)c[nH]c2c1 [Serdemetan] + Cc1nc(Nc2ncc(C(=O)Nc3c(C)cccc3Cl)s2)cc(N2CCN(CCO)CC2)n1 [Dasatinib] (partner 0.075 µM)
Method in brief: as §1

Cell Line | relative viability (Selisistat + Bortezomib; first compound 0.4 µM) | relative viability (Selisistat + Bortezomib; first compound 1.265 µM) | relative viability (Selisistat + Bortezomib; first compound 12.65 µM) | relative viability (Selisistat + Bortezomib; first compound 40 µM) | relative viability (Selisistat + Olaparib; first compound 0.4 µM) | relative viability (Selisistat + Olaparib; first compound 1.265 µM) | relative viability (Selisistat + Olaparib; first compound 4 µM) | relative viability (Selisistat + Olaparib; first compound 12.65 µM) | relative viability (Selisistat + Olaparib; first compound 40 µM) | relative viability (Selisistat + Pictilisib; first compound 0.4 µM) | relative viability (Selisistat + Pictilisib; first compound 1.265 µM) | relative viability (Selisistat + Pictilisib; first compound 4 µM) | relative viability (Selisistat + Pictilisib; first compound 12.65 µM) | relative viability (Selisistat + Pictilisib; first compound 40 µM) | relative viability (Serdemetan + Dasatinib; first compound 0.04 µM) | relative viability (Serdemetan + Dasatinib; first compound 0.1265 µM) | relative viability (Serdemetan + Dasatinib; first compound 0.4 µM) | relative viability (Serdemetan + Dasatinib; first compound 1.265 µM) | relative viability (Serdemetan + Dasatinib; first compound 4 µM) | relative viability (Selisistat + Bortezomib; first compound 4 µM)
HCC-78 | 0.515 | 0.471 | 0.489 | 0.514 | 0.893 | 0.795 | 0.82 | 0.833 | 0.88 | 0.253 | 0.229 | 0.172 | 0.196 | 0.181 | 0.408 | 0.316 | 0.331 | 0.307 | 0.299 | 
HCC-366 | 1.07 | 1.02 | 0.98 | 1.02 | 0.306 | 0.344 | 0.359 | 0.364 | 0.387 | 0.098 | 0.135 | 0.129 | 0.0936 | 0.207 | 0.637 | 0.472 | 0.542 | 0.0442 | 0.155 | 0.955
HCC-827 | 1.06 | 1.04 | 0.886 | 0.951 | 0.678 | 0.741 | 0.672 | 0.647 | 0.627 | 0.86 | 0.91 | 1.03 | 0.962 | 1.04 | 0.372 | 0.231 |  | 0.229 | 0.138 | 0.994
HOP-62 | 0.837 | 1.08 | 0.624 | 0.883 | 0.394 | 0.422 | 0.419 | 0.432 | 0.73 | 0.865 | 0.651 | 0.449 | 0.619 | 0.935 | 0.561 | 0.625 | 0.636 | 0.538 | 0.567 | 0.867
IA-LM | 0.867 | 0.735 | 0.682 | 0.881 | 0.899 | 0.897 | 0.849 | 0.802 | 0.806 | 0.277 | 0.368 | 0.353 | 0.502 | 0.375 |  |  |  |  |  | 0.758
LC-2-ad | 1 | 1.02 | 0.985 | 1.05 | 0.801 | 0.69 | 0.717 | 0.633 | 0.71 | 0.538 | 0.424 | 0.333 | 0.426 | 0.565 | 0.495 | 0.634 | 0.519 | 0.501 | 0.475 | 1.03
LCLC-97TM1 | 0.696 | 0.77 | 0.555 | 0.553 | 0.488 | 0.304 |  | 0.285 | 0.366 | 0.148 | 0.191 | 0.134 | 0.185 | 0.218 | 0.824 | 0.971 | 0.823 |  | 0.748 | 
LCLC-103H | 1.15 | 1.03 | 1.14 | 1.09 | 0.814 | 0.798 | 0.78 | 0.724 | 0.833 | 0.662 | 0.629 | 0.464 | 0.508 | 0.666 | 0.466 | 0.434 | 0.539 | 0.331 | 0.482 | 0.979
LK-2 |  |  |  |  | 0.721 | 0.652 | 0.675 | 0.588 | 0.782 | 0.645 | 0.502 | 0.575 | 0.499 | 0.456 | 0.315 | 0.269 | 0.334 | 0.233 | 0.379 | 
NCI-H358 |  |  |  |  | 0.724 | 0.593 | 0.696 | 0.553 | 0.662 | 0.402 | 0.361 |  | 0.408 | 0.395 | 0.185 | 0.167 | 0.161 | 0.146 | 0.17 | 
NCI-H522 |  |  |  |  | 0.574 | 0.766 | 0.634 | 0.553 | 0.519 |  |  |  |  |  | 0.807 | 0.844 | 0.911 |  | 0.946 | 
NCI-H1299 | 1.07 | 1.07 | 1.03 | 1.02 | 1.04 | 0.972 | 1 | 1.03 | 1.02 | 0.778 | 0.744 | 1.02 | 0.849 | 0.692 |  |  |  |  |  | 1.05
NCI-H1395 |  |  |  |  | 0.474 | 0.47 |  | 0.451 | 0.465 | 0.617 | 0.609 | 0.564 | 0.656 | 0.557 | 0.396 | 0.42 | 0.481 | 0.406 | 0.281 | 
NCI-H1563 | 0.855 | 0.753 | 0.789 | 0.581 |  |  |  |  |  | 0.559 | 0.639 | 0.649 | 0.605 | 0.623 | 0.496 | 0.466 | 0.452 | 0.457 | 0.461 | 0.752
NCI-H1648 |  |  |  |  | 0.878 | 0.792 |  | 0.918 | 1.2 |  |  |  |  |  |  |  |  |  |  | 
NCI-H1703 | 0.293 | 0.286 | 0.266 | 0.332 | 0.416 | 0.425 | 0.362 | 0.42 | 0.433 | 0.232 | 0.217 | 0.242 | 0.267 | 0.233 |  |  |  |  |  | 0.301
NCI-H1793 |  |  |  |  | 1.01 | 0.935 |  | 0.812 | 0.912 | 0.311 | 0.275 |  | 0.287 | 0.516 | 0.355 | 0.308 | 0.383 | 0.21 | 0.259 | 
NCI-H1944 |  |  |  |  | 0.431 | 0.381 | 0.335 | 0.357 | 0.413 | 0.335 | 0.363 |  | 0.346 | 0.395 | 0.201 | 0.212 | 0.218 | 0.131 | 0.164 | 
NCI-H2170 |  |  |  |  | 0.596 | 0.581 | 0.647 | 0.585 | 0.664 | 0.323 | 0.338 | 0.275 | 0.303 | 0.378 | 0.437 | 0.612 | 0.474 | 0.513 | 0.569 | 
NCI-H2342 |  |  |  |  | 0.4 | 0.397 | 0.468 | 0.475 | 0.461 |  |  |  |  |  | 0.309 | 0.302 | 0.291 | 0.28 | 0.301 | 
SK-MES-1 |  |  |  |  | 0.769 | 0.717 | 0.823 | 0.736 | 0.809 | 0.37 | 0.309 | 0.315 | 0.329 | 0.366 | 0.337 | 0.378 | 0.327 | 0.379 | 0.267 | 
SW 900 |  |  |  |  | 0.905 | 0.914 | 0.941 | 0.833 | 0.862 |  |  |  |  |  | 0.502 | 0.471 | 0.484 | 0.385 | 0.345 | 
